Experimental data: PubChem BioAssay AID1259407 (Chemical Carcinogenesis Research Information System (CCRIS), 2018)
Calls of active or inactive are those of the source. The rule behind the calls is not given here.

Tested on: CCRIS mutagenicity, Ames/micronucleus/aberration tests
Assay: CCRIS mutagenicity studies
[1] = Test System: AMES SALMONELLA TYPHIMURIUM, Strain/Indicator: TA98, Metabolic Activation: NONE, Method: PREINCUBATION
[2] = Test System: AMES SALMONELLA TYPHIMURIUM, Strain/Indicator: TA98, Metabolic Activation: NONE, Method: STANDARD PLATE
[3] = Test System: AMES SALMONELLA TYPHIMURIUM, Strain/Indicator: TA100, Metabolic Activation: NONE, Method: STANDARD PLATE

Question: For CCCCCCCCOc1ccc(C(=O)O)cc1, which mutagenic call (Test System: AMES SALMONELLA TYPHIMURIUM, Strain/Indicator: TA97, Metabolic Activation: HAMSTER, LIVER, S-9, AROCLOR 1254 (10%), Method: PREINCUBATION) is on record?
Answer: inactive; negative

Question: And the mutagenic call (Test System: AMES SALMONELLA TYPHIMURIUM, Strain/Indicator: TA97, Metabolic Activation: HAMSTER, LIVER, S-9, AROCLOR 1254 (30%), Method: PREINCUBATION)?
Answer: inactive; negative

Question: What about the mutagenic call (Test System: AMES SALMONELLA TYPHIMURIUM, Strain/Indicator: TA97, Metabolic Activation: NONE, Method: PREINCUBATION) of the same compound?
Answer: inactive; negative

Question: And the mutagenic call (Test System: AMES SALMONELLA TYPHIMURIUM, Strain/Indicator: TA97, Metabolic Activation: RAT, LIVER, S-9, AROCLOR 1254 (10%), Method: PREINCUBATION)?
Answer: inactive; negative

Question: What about the mutagenic call (Test System: AMES SALMONELLA TYPHIMURIUM, Strain/Indicator: TA97, Metabolic Activation: RAT, LIVER, S-9, AROCLOR 1254 (30%), Method: PREINCUBATION) of the same compound?
Answer: inactive; negative

Question: What about the mutagenic call (Test System: AMES SALMONELLA TYPHIMURIUM, Strain/Indicator: TA98, Metabolic Activation: HAMSTER, LIVER, S-9, AROCLOR 1254 (10%), Method: PREINCUBATION) of the same compound?
Answer: inactive; negative

Question: And the mutagenic call (Test System: AMES SALMONELLA TYPHIMURIUM, Strain/Indicator: TA98, Metabolic Activation: HAMSTER, LIVER, S-9, AROCLOR 1254 (30%), Method: PREINCUBATION)?
Answer: inactive; negative

Question: And the mutagenic call [1]?
Answer: inactive; negative

Question: And the mutagenic call (Test System: AMES SALMONELLA TYPHIMURIUM, Strain/Indicator: TA98, Metabolic Activation: RAT, LIVER, S-9, AROCLOR 1254 (10%), Method: PREINCUBATION)?
Answer: inactive; negative

Question: And the mutagenic call (Test System: AMES SALMONELLA TYPHIMURIUM, Strain/Indicator: TA98, Metabolic Activation: RAT, LIVER, S-9, AROCLOR 1254 (30%), Method: PREINCUBATION)?
Answer: inactive; negative

Question: And the mutagenic call (Test System: AMES SALMONELLA TYPHIMURIUM, Strain/Indicator: TA100, Metabolic Activation: HAMSTER, LIVER, S-9, AROCLOR 1254 (10%), Method: PREINCUBATION)?
Answer: inactive; negative

Question: And the mutagenic call (Test System: AMES SALMONELLA TYPHIMURIUM, Strain/Indicator: TA100, Metabolic Activation: HAMSTER, LIVER, S-9, AROCLOR 1254 (30%), Method: PREINCUBATION)?
Answer: inactive; negative

Question: What about the mutagenic call (Test System: AMES SALMONELLA TYPHIMURIUM, Strain/Indicator: TA100, Metabolic Activation: NONE, Method: PREINCUBATION) of the same compound?
Answer: inactive; negative

Question: And the mutagenic call (Test System: AMES SALMONELLA TYPHIMURIUM, Strain/Indicator: TA100, Metabolic Activation: RAT, LIVER, S-9, AROCLOR 1254 (10%), Method: PREINCUBATION)?
Answer: inactive; negative

Question: And the mutagenic call (Test System: AMES SALMONELLA TYPHIMURIUM, Strain/Indicator: TA100, Metabolic Activation: RAT, LIVER, S-9, AROCLOR 1254 (30%), Method: PREINCUBATION)?
Answer: inactive; negative

Question: And the mutagenic call (Test System: AMES SALMONELLA TYPHIMURIUM, Strain/Indicator: TA1535, Metabolic Activation: HAMSTER, LIVER, S-9, AROCLOR 1254 (10%), Method: PREINCUBATION)?
Answer: inactive; negative

Question: What about the mutagenic call (Test System: AMES SALMONELLA TYPHIMURIUM, Strain/Indicator: TA1535, Metabolic Activation: HAMSTER, LIVER, S-9, AROCLOR 1254 (30%), Method: PREINCUBATION) of the same compound?
Answer: inactive; negative

Question: What about the mutagenic call (Test System: AMES SALMONELLA TYPHIMURIUM, Strain/Indicator: TA1535, Metabolic Activation: NONE, Method: PREINCUBATION) of the same compound?
Answer: inactive; negative

Question: And the mutagenic call (Test System: AMES SALMONELLA TYPHIMURIUM, Strain/Indicator: TA1535, Metabolic Activation: RAT, LIVER, S-9, AROCLOR 1254 (10%), Method: PREINCUBATION)?
Answer: inactive; negative

Question: What about the mutagenic call (Test System: AMES SALMONELLA TYPHIMURIUM, Strain/Indicator: TA1535, Metabolic Activation: RAT, LIVER, S-9, AROCLOR 1254 (30%), Method: PREINCUBATION) of the same compound?
Answer: inactive; negative

Question: Which results are given for CCOP(=O)(OCC)Oc1nc(Cl)c(Cl)cc1Cl?
Answer: mutagenic call [2]: inactive; negative; mutagenic call (Test System: AMES SALMONELLA TYPHIMURIUM, Strain/Indicator: TA98, Metabolic Activation: RAT, LIVER, S-9, Method: STANDARD PLATE): inactive; negative; mutagenic call [3]: inactive; negative; mutagenic call (Test System: AMES SALMONELLA TYPHIMURIUM, Strain/Indicator: TA100, Metabolic Activation: RAT, LIVER, S-9, Method: STANDARD PLATE): inactive; negative

Question: With CNN as the compound, how does the mutagenic call (End Point: IN VITRO CHROMOSOMAL ABERRATIONS, Test System: CHL CELLS, Metabolic Activation: RAT, LIVER, S-9, SODIUM PHENOBARBITAL AND 5,6-BENZOFLAVONE) read?
Answer: active; positive (structural changes)

Question: And the mutagenic call [1]?
Answer: inactive; negative

Question: What about the mutagenic call (Test System: AMES SALMONELLA TYPHIMURIUM, Strain/Indicator: TA98, Metabolic Activation: RAT LIVER S-9, PHENOBARBITAL AND BETA-NAPHTHOFLAVONE, Method: PREINCUBATION) of the same compound?
Answer: inactive; negative

Question: And the mutagenic call (Test System: AMES SALMONELLA TYPHIMURIUM, Strain/Indicator: TA100, Metabolic Activation: RAT LIVER S-9, PHENOBARBITAL AND BETA-NAPHTHOFLAVONE, Method: PREINCUBATION)?
Answer: inactive; negative

Question: And the mutagenic call (Test System: AMES SALMONELLA TYPHIMURIUM, Strain/Indicator: TA102, Metabolic Activation: NONE, Method: PREINCUBATION)?
Answer: active; positive

Question: And the mutagenic call (Test System: AMES SALMONELLA TYPHIMURIUM, Strain/Indicator: TA1535, Metabolic Activation: RAT LIVER S-9, PHENOBARBITAL AND BETA-NAPHTHOFLAVONE, Method: PREINCUBATION)?
Answer: active; positive

Question: And the mutagenic call (Test System: AMES SALMONELLA TYPHIMURIUM, Strain/Indicator: TA1535, Metabolic Activation: RAT, LIVER, S-9, AROCLOR 1254, Method: PREINCUBATION)?
Answer: inactive; negative

Question: And the mutagenic call (Test System: AMES SALMONELLA TYPHIMURIUM, Strain/Indicator: TA1537, Metabolic Activation: NONE, Method: PREINCUBATION)?
Answer: inactive; negative

Question: What about the mutagenic call (Test System: AMES SALMONELLA TYPHIMURIUM, Strain/Indicator: TA1537, Metabolic Activation: RAT LIVER S-9, PHENOBARBITAL AND BETA-NAPHTHOFLAVONE, Method: PREINCUBATION) of the same compound?
Answer: inactive; negative

Question: What about the mutagenic call (Test System: AMES SALMONELLA TYPHIMURIUM, Strain/Indicator: TA1537, Metabolic Activation: RAT, LIVER, S-9, AROCLOR 1254, Method: PREINCUBATION) of the same compound?
Answer: inactive; negative

Question: And the mutagenic call (Test System: E. COLI, Strain/Indicator: WP2 UVRA, Metabolic Activation: NONE, Method: PREINCUBATION)?
Answer: active; positive

Question: And the mutagenic call (Test System: E.COLI, Strain/Indicator: WP2UVRA, Metabolic Activation: RAT LIVER S-9, PHENOBARBITAL AND BETA-NAPHTHOFLAVONE, Method: PREINCUBATION)?
Answer: active; positive

Question: Which results are given for C/C(=C(/OCCOc1ccc(Cl)cc1)c1ccc(Cl)cc1Cl)n1ccnc1?
Answer: mutagenic call [2]: inactive; negative; mutagenic call (Test System: AMES SALMONELLA TYPHIMURIUM, Strain/Indicator: TA98, Metabolic Activation: RAT, LIVER, S-9, PHENOBARBITAL AND 5,6-BENZOFLAVONE, Method: STANDARD PLATE): inactive; negative; mutagenic call [3]: inactive; negative; mutagenic call (Test System: AMES SALMONELLA TYPHIMURIUM, Strain/Indicator: TA100, Metabolic Activation: RAT, LIVER, S-9, PHENOBARBITAL AND 5,6-BENZOFLAVONE, Method: STANDARD PLATE): inactive; negative; mutagenic call (Test System: AMES SALMONELLA TYPHIMURIUM, Strain/Indicator: TA1535, Metabolic Activation: NONE, Method: STANDARD PLATE): inactive; negative; mutagenic call (Test System: AMES SALMONELLA TYPHIMURIUM, Strain/Indicator: TA1535, Metabolic Activation: RAT, LIVER, S-9, PHENOBARBITAL AND 5,6-BENZOFLAVONE, Method: STANDARD PLATE): inactive; negative; mutagenic call (Test System: AMES SALMONELLA TYPHIMURIUM, Strain/Indicator: TA1537, Metabolic Activation: NONE, Method: STANDARD PLATE): inactive; negative; mutagenic call (Test System: AMES SALMONELLA TYPHIMURIUM, Strain/Indicator: TA1537, Metabolic Activation: RAT, LIVER, S-9, PHENOBARBITAL AND 5,6-BENZOFLAVONE, Method: STANDARD PLATE): inactive; negative; mutagenic call (Test System: E. COLI, Strain/Indicator: WP2 UVRA, Metabolic Activation: NONE, Method: STANDARD PLATE): inactive; negative; mutagenic call (Test System: E. COLI, Strain/Indicator: WP2 UVRA, Metabolic Activation: RAT, LIVER, S-9, PHENOBARBITAL AND 5,6-BENZOFLAVONE, Method: STANDARD PLATE): inactive; negative

Question: For O=[N+]([O-])c1cc(-c2ccccc2)cc([N+](=O)[O-])c1O, which mutagenic call [1] is on record?
Answer: active; positive

Question: Which results are given for CNc1ccc(N=Nc2ccc(N(C)C(C)=O)cc2)cc1?
Answer: mutagenic call (Test System: AMES SALMONELLA TYPHIMURIUM, Strain/Indicator: TA98, Metabolic Activation: RAT, LIVER, S-9, POLYCHLORINATED BIPHENYLS, Method: PREINCUBATION): active; positive; mutagenic call (Test System: AMES SALMONELLA TYPHIMURIUM, Strain/Indicator: TA100, Metabolic Activation: RAT, LIVER, S-9, POLYCHLORINATED BIPHENYLS, Method: PREINCUBATION): active; positive
